How the values were obtained:
[1] = target: T1, Pancreatic triacylglycerol lipase (Sus scrofa, UniProt P00591); assay: (§1) Inhibition of pig pancreatic lipase assessed as hydrolysis of p-nitrophenylbutyrate to p-nitrophenol
T1 sequence (P00591 whole entry): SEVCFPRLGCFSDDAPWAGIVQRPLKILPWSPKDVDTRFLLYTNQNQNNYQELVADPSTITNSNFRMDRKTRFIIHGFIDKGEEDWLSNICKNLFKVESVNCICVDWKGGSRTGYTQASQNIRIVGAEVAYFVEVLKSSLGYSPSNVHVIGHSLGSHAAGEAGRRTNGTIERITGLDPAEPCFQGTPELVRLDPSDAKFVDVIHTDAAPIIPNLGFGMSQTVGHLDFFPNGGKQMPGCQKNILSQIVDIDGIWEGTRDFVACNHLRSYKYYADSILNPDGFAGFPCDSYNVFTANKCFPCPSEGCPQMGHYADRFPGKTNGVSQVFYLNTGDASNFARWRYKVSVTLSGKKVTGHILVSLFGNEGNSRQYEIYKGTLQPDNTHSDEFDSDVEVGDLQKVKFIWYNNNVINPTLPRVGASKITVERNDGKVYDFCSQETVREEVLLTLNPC

3T3-L1 [2] = assay: Cytotoxicity against mouse 3T3L1 cells assessed as cell viability at 0.02 to 20 uM by MTT assay; assay type: cell-based; details: 3t3-l1, 20 µM
3T3-L1 [3] = assay: Antiadipogenic activity against mouse 3T3L1 cells assessed as inhibition of lipid deposition at 2 uM by Oil Red O staining; assay type: functional
3T3-L1 [4] = assay: Cytotoxicity against mouse 3T3L1 cells assessed as cell viability upto 2 uM by MTT assay; assay type: cell-based
[5] = target: T2, Pancreatic triacylglycerol lipase (Sus scrofa) (UniProt P00591); assay: as §1
T2 sequence (whole entry): T1 sequence (P00591 whole entry)

C=C(C)[C@H]1Cc2c(ccc3c2O[C@@H]2COc4cc(OC)c(OC)cc4[C@@H]2C3=O)O1 (stereo in doubt) [ROTENONE]
IC50 [1]: 79.1 µM

C=C(C)[C@H]1Cc2c(ccc3c2O[C@@H]2COc4cc(OC)c(OC)cc4[C@@H]2C3=O)O1 (stereo in doubt; 1) [ROTENONE]
Activity (3T3-L1 [2]): Toxic
IC50 [1]: > 500 µM

C=C(C)[C@H]1Cc2c(ccc3c2O[C@@H]2COc4cc(OC)c(OC)cc4[C@@H]2[C@@]32CO2)O1 [ROTENOISIN A]
inhibition at 2 µM (3T3-L1 [3]): 70%
Activity (3T3-L1 [4]): Non-toxic
inhibition [5]: Dose-dependent effect
IC50 [1]: 6.3 µM

C=C(C)[C@H]1Cc2c(ccc3c2O[C@@H]2COc4cc(OC)c(OC)cc4[C@@H]2[C@]32C[C@H]3O[C@@]3(O)[C@H](O)O2)O1 [ROTENOISIN B]
inhibition at 2 µM (3T3-L1 [3]): 70%
Activity (3T3-L1 [4]): Non-toxic
IC50 [1]: 28.4 µM
